Test results as given in patent US10597388B2, “Pyridazinone herbicides” (FMC CORPORATION, priority 2014, dated 2020).

Legend:
Type in all cases: in vivo
[1] = tested on: barnyardgrass (Echinochloa crus-galli); test: Test B flooded paddy test; settings: 250 g ai/ha, Flood; visual rating on scale of 0 to 100 where 0 is no effect and 100 is complete control; 13 to 15 d after treatment
In short: (§1)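 Plants at the 2-leaf stage were flooded to 3 cm above soil, and test compounds were applied directly into the paddy water, which was held at that depth throughout. After 13 to 15 d in a greenhouse, injury was rated visually against untreated controls on a 0–100 scale (0 no effect, 100 complete control).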

[2] = tested on: sedge, umbrella (small-flower umbrella sedge, Cyperus difformis); test: Test B flooded paddy test; settings: 250 g ai/ha, Flood; visual rating on scale of 0 to 100 where 0 is no effect and 100 is complete control; 13 to 15 d after treatment
In short: as §1

[3] = tested on: ducksalad (Heteranthera limosa); test: Test B flooded paddy test; settings: 250 g ai/ha, Flood; visual rating on scale of 0 to 100 where 0 is no effect and 100 is complete control; 13 to 15 d after treatment
In short: as §1

rice (Oryza sativa) = test: Test B flooded paddy test; settings: 250 g ai/ha, Flood; visual rating on scale of 0 to 100 where 0 is no effect and 100 is complete control; 13 to 15 d after treatment
In short: as §1

[4] = tested on: wheat (Triticum aestivum); test: Test A greenhouse herbicide test, pre- and postemergence; settings: Postemergence; for Plant response rating, Wheat: 125 g ai/ha, 0 to 100 scale where 0 is no effect and 100 is complete control; for Wheat plant response rating: 500 g ai/ha, 0 to 100 scale, 0 is no effect, 100 is complete control
In short: (§2)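 Seeds sown in loam–sand blend got a preemergence directed soil spray of compound in non-phytotoxic solvent with surfactant. Postemergence treatment was given at 2–10 cm, one- to two-leaf stage. After ~10 d in greenhouse, injury was rated visually vs untreated controls, 0 (no effect) to 100 (complete control).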

[5] = tested on: foxtail, giant (giant foxtail, Setaria faberii); test: as above
In short: as §2

kochia (Kochia scoparia) = test: as above
In short: as §2

[6] = tested on: barnyardgrass (Echinochloa crus-galli); test: as above
In short: as §2

corn (Zea mays) = test: as above; settings: Postemergence; for Plant response rating, Corn: 125 g ai/ha, 0 to 100 scale where 0 is no effect and 100 is complete control; for Corn plant response rating: 500 g ai/ha, 0 to 100 scale, 0 is no effect, 100 is complete control
In short: as §2

[7] = tested on: ragweed (common ragweed, Ambrosia elatior); test: as above
In short: as §2

[8] = tested on: pigweed (Amaranthus retroflexus); test: as above
In short: as §2

[9] = tested on: ryegrass, Italian (Italian ryegrass, Lolium multiflorum); test: as above
In short: as §2

[10] = tested on: blackgrass (Alopecurus myosuroides); test: Test A greenhouse herbicide test, postemergence; settings: for Plant response rating, Blackgrass: 125 g ai/ha, 0 to 100 scale where 0 is no effect and 100 is complete control; for Blackgrass plant response rating: 500 g ai/ha, 0 to 100 scale, 0 is no effect, 100 is complete control
In short: (§3)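 Greenhouse postemergence test: formulated chemicals sprayed on one- to two-leaf plants (2 to 10 cm), grown in loam soil blended with sand. Injury assessed visually about 10 d later against untreated controls, scored 0 (no effect) to 100 (complete control).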

[11] = tested on: galium (catchweed bedstraw, Galium aparine); test: Test A greenhouse herbicide test, postemergence; settings: for Plant response rating, Galium: 125 g ai/ha, 0 to 100 scale where 0 is no effect and 100 is complete control; for Galium plant response rating: 500 g ai/ha, 0 to 100 scale, 0 is no effect, 100 is complete control
In short: as §3

[12] = Postemergence, 125 g ai/ha, 0 to 100 scale where 0 is no effect and 100 is complete control
[13] = Postemergence, 500 g ai/ha, 0 to 100 scale, 0 is no effect, 100 is complete control
[14] = Preemergence, 125 g ai/ha, 0 to 100 scale where 0 is no effect and 100 is complete control
[15] = Preemergence, 500 g ai/ha, 0 to 100 scale, 0 no effect, 100 complete control
[16] = Preemergence, 500 g ai/ha, 0 to 100 scale where 0 is no effect and 100 is complete control

SMILES: COC(=O)Oc1c(C)nn(C)c(=O)c1-c1ccc(Cl)c2ccccc12 [Compound 63]
- Plant response rating, Barnyardgrass [1]: 0
- Plant response rating, Sedge, Umbrella [2]: 65
- Plant response rating, Ducksalad [3]: 30
- Plant response rating, Rice (rice (Oryza sativa)): 0
- Plant response rating, Wheat [4]: 0
- Wheat plant response rating [4]: 40
- Plant response rating, Foxtail, Giant [5, 12]: 70
- Foxtail, Giant plant response rating [5, 13]: 90
- Foxtail, Giant plant response rating [5, 14]: 40
- Plant response rating, Foxtail, Giant [5, 15]: 70
- Plant response rating, Kochia (kochia (Kochia scoparia); [12]): 100
- Kochia plant response rating (kochia (Kochia scoparia); [13]): 100
- Kochia plant response rating (kochia (Kochia scoparia); [14]): 100
- Plant response rating, Kochia (kochia (Kochia scoparia); [15]): 100
- Plant response rating, Barnyardgrass [6, 12]: 60
- Barnyardgrass plant response rating [6, 13]: 90
- Barnyardgrass plant response rating [6, 14]: 80
- Plant response rating, Barnyardgrass [6, 15]: 90
- Plant response rating, Corn (corn (Zea mays)): 0
- Corn plant response rating (corn (Zea mays)): 40
- Plant response rating, Ragweed [7, 12]: 100
- Ragweed plant response rating [7, 13]: 100
- Ragweed plant response rating [7, 14]: 80
- Plant response rating, Ragweed [7, 15]: 90
- Plant response rating, Pigweed [8, 12]: 100
- Pigweed plant response rating [8, 13]: 100
- Pigweed plant response rating [8, 14]: 100
- Plant response rating, Pigweed [8, 15]: 100
- Plant response rating, Ryegrass, Italian [9, 12]: 100
- Ryegrass, Italian plant response rating [9, 13]: 100
- Ryegrass, Italian plant response rating [9, 14]: 100
- Plant response rating, Ryegrass, Italian [9, 15]: 100
- Plant response rating, Blackgrass [10]: 70
- Blackgrass plant response rating [10]: 80
- Plant response rating, Galium [11]: 100
- Galium plant response rating [11]: 100

SMILES: CCOc1ccc2oc(CC)c(-c3c(O)c(C)nn(C)c3=O)c2c1 [Compound 68]
- Plant response rating, Barnyardgrass [1]: 0
- Plant response rating, Sedge, Umbrella [2]: 30
- Plant response rating, Ducksalad [3]: 0
- Plant response rating, Rice (rice (Oryza sativa)): 0
- Plant response rating, Wheat [4]: 0
- Wheat plant response rating [4]: 0
- Plant response rating, Foxtail, Giant [5, 12]: 10
- Foxtail, Giant plant response rating [5, 13]: 50
- Foxtail, Giant plant response rating [5, 14]: 10
- Plant response rating, Foxtail, Giant [5, 16]: 50
- Plant response rating, Kochia (kochia (Kochia scoparia); [12]): 0
- Kochia plant response rating (kochia (Kochia scoparia); [13]): 0
- Kochia plant response rating (kochia (Kochia scoparia); [14]): 0
- Plant response rating, Kochia (kochia (Kochia scoparia); [16]): 0
- Plant response rating, Barnyardgrass [6, 12]: 70
- Barnyardgrass plant response rating [6, 13]: 80
- Barnyardgrass plant response rating [6, 14]: 10
- Plant response rating, Barnyardgrass [6, 15]: 40
- Plant response rating, Corn (corn (Zea mays)): 0
- Corn plant response rating (corn (Zea mays)): 0
- Plant response rating, Ragweed [7, 12]: 0
- Ragweed plant response rating [7, 13]: 0
- Ragweed plant response rating [7, 14]: 0
- Plant response rating, Ragweed [7, 16]: 20
- Plant response rating, Pigweed [8, 12]: 0
- Pigweed plant response rating [8, 13]: 0
- Pigweed plant response rating [8, 14]: 0
- Plant response rating, Pigweed [8, 16]: 0
- Plant response rating, Ryegrass, Italian [9, 12]: 0
- Ryegrass, Italian plant response rating [9, 13]: 0
- Ryegrass, Italian plant response rating [9, 14]: 0
- Plant response rating, Ryegrass, Italian [9, 16]: 0
- Plant response rating, Blackgrass [10]: 0
- Blackgrass plant response rating [10]: 10
- Plant response rating, Galium [11]: 0
- Galium plant response rating [11]: 0

SMILES: Cc1nn(C)c(=O)c(-c2c(C)n(C)c3ccc(Cl)cc23)c1O [Compound 74]
- Plant response rating, Barnyardgrass [1]: 0
- Plant response rating, Sedge, Umbrella [2]: 0
- Plant response rating, Ducksalad [3]: 0
- Plant response rating, Rice (rice (Oryza sativa)): 0
- Plant response rating, Wheat [4]: 0
- Wheat plant response rating [4]: 0
- Plant response rating, Foxtail, Giant [5, 12]: 0
- Foxtail, Giant plant response rating [5, 13]: 20
- Foxtail, Giant plant response rating [5, 14]: 0
- Plant response rating, Foxtail, Giant [5, 16]: 0
- Plant response rating, Kochia (kochia (Kochia scoparia); [12]): 30
- Kochia plant response rating (kochia (Kochia scoparia); [13]): 30
- Kochia plant response rating (kochia (Kochia scoparia); [14]): 0
- Plant response rating, Kochia (kochia (Kochia scoparia); [16]): 0
- Plant response rating, Barnyardgrass [6, 12]: 0
- Barnyardgrass plant response rating [6, 13]: 10
- Barnyardgrass plant response rating [6, 14]: 0
- Plant response rating, Barnyardgrass [6, 15]: 0
- Plant response rating, Corn (corn (Zea mays)): 0
- Corn plant response rating (corn (Zea mays)): 0
- Plant response rating, Ragweed [7, 12]: 0
- Ragweed plant response rating [7, 13]: 10
- Ragweed plant response rating [7, 14]: 0
- Plant response rating, Ragweed [7, 16]: 0
- Plant response rating, Pigweed [8, 12]: 40
- Pigweed plant response rating [8, 13]: 50
- Pigweed plant response rating [8, 14]: 30
- Plant response rating, Pigweed [8, 16]: 50
- Plant response rating, Ryegrass, Italian [9, 12]: 0
- Ryegrass, Italian plant response rating [9, 13]: 0
- Ryegrass, Italian plant response rating [9, 14]: 0
- Plant response rating, Ryegrass, Italian [9, 16]: 0
- Plant response rating, Blackgrass [10]: 20
- Blackgrass plant response rating [10]: 40
- Plant response rating, Galium [11]: 10
- Galium plant response rating [11]: 20

SMILES: COc1nn(C)c(=O)c(-c2c(C(F)F)ccc3ccccc23)c1O [Compound 86]
- Plant response rating, Barnyardgrass [1]: 0
- Plant response rating, Sedge, Umbrella [2]: 60
- Plant response rating, Ducksalad [3]: 20
- Plant response rating, Rice (rice (Oryza sativa)): 15
- Plant response rating, Wheat [4]: 0
- Wheat plant response rating [4]: 0
- Plant response rating, Foxtail, Giant [5, 12]: 50
- Foxtail, Giant plant response rating [5, 13]: 70
- Foxtail, Giant plant response rating [5, 14]: 20
- Plant response rating, Foxtail, Giant [5, 16]: 70
- Plant response rating, Kochia (kochia (Kochia scoparia); [12]): 70
- Kochia plant response rating (kochia (Kochia scoparia); [13]): 80
- Kochia plant response rating (kochia (Kochia scoparia); [14]): 0
- Plant response rating, Kochia (kochia (Kochia scoparia); [16]): 40
- Plant response rating, Barnyardgrass [6, 12]: 30
- Barnyardgrass plant response rating [6, 13]: 10
- Barnyardgrass plant response rating [6, 14]: 0
- Plant response rating, Barnyardgrass [6, 16]: 40
- Plant response rating, Corn (corn (Zea mays)): 0
- Corn plant response rating (corn (Zea mays)): 0
- Plant response rating, Ragweed [7, 12]: 80
- Ragweed plant response rating [7, 13]: 80
- Ragweed plant response rating [7, 14]: 40
- Plant response rating, Ragweed [7, 16]: 90
- Plant response rating, Pigweed [8, 12]: 90
- Pigweed plant response rating [8, 13]: 90
- Pigweed plant response rating [8, 14]: 80
- Plant response rating, Pigweed [8, 16]: 100
- Plant response rating, Ryegrass, Italian [9, 12]: 0
- Ryegrass, Italian plant response rating [9, 13]: 50
- Ryegrass, Italian plant response rating [9, 14]: 0
- Plant response rating, Ryegrass, Italian [9, 16]: 40
- Plant response rating, Blackgrass [10]: 10
- Blackgrass plant response rating [10]: 30
- Plant response rating, Galium [11]: 90
- Galium plant response rating [11]: 100
